Experiment: collision cross section (DTIM-MS, N2); higher = larger ion
Method: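 Collision cross section (CCS) of drug and natural-product chemical standards (validation set 2, measured in this paper). Three independent measurements were made across 2 months; the value taken is their mean (avg_ccs), for the ion adduct given.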

collision cross section (ion adduct: [M+H]+) [Å²]	collision cross section (ion adduct: [M-H]-) [Å²]	SMILES
138.93	–	CC1(C)CCC[C@@]2(C)OC(=O)C=C12
–	167.91	COc1cc(/C=C/C(=O)O)cc(OC)c1OC [3,4,5-Trimethoxycinnamic acid]
–	213.46	O=C(C=Cc1ccc(O)c(O)c1)OC1CC(O)(C(=O)O)CC(O)C1OC(=O)C=Cc1ccc(O)c(O)c1 (stereo not given) [4,5-Dicaffeoylquinic acid]
136.8	135.33	Cc1cc(=O)oc2cc(O)c(O)cc12 [4-Methyl-6,7-dihydroxycoumarin]
136.89	135.28	Cc1cc(=O)oc2cc(O)cc(O)c12 [5,7-Dihydroxy-4-methylcoumarin]
–	170.04	CCCCC[C@H](O)CC(=O)CCc1ccc(O)c(OC)c1 [6-Gingerol]
–	135.48	Cc1cc(=O)oc2ccc(O)cc12 [6-Hydroxy-4-methylcoumarin]
129.59	129.61	O=c1ccc2cc(O)ccc2o1 [6-Hydroxycoumarin]
–	167.21	CCCCCC=CC(=O)CCc1ccc(O)c(OC)c1 [6-Shogaol]
156.5	157.01	O=c1cc(-c2ccccc2)c2ccc(O)c(O)c2o1 [7,8-Dihydroxy-4-phenylcoumarin]
131.39	–	COc1ccc2ccc(=O)oc2c1 [7-Methoxycoumarin]
144.57	–	Cc1cc(=O)oc2c([N+](=O)[O-])c(O)ccc12 [7-hydroxy-4-methyl-8-nitrocoumarin]
–	178.08	CCCCCCCC(O)CC(=O)CCc1ccc(O)c(OC)c1 (stereo not given) [8-Gingerol]
–	208.19	COC(=O)C1=CO[C@@H](O[C@@H]2O[C@H](CO)[C@@H](O)[C@H](O)[C@H]2O)[C@H]2[C@@H]1[C@H](O)C[C@]2(C)OC(C)=O [8-O-Acetylshanzhiside methyl ester]
–	188	CCCCCCCCC[C@H](O)CC(=O)CCc1ccc(O)c(OC)c1 [10-Gingerol]
–	222.94	CC(C)=CCC[C@](C)(O)[C@H]1CC[C@]2(C)[C@@H]1[C@H](O)C[C@@H]1[C@@]3(C)CC[C@H](O)C(C)(C)[C@@H]3CC[C@]12C [(20S)-Protopanaxdiol]
174.96	185.72	CC(C)C1=CC2=CC[C@@H]3[C@](C)(CCC[C@@]3(C)C(=O)O)[C@H]2CC1 [Abietic acid]
142.71	138.64	CC(=O)Nc1nnc(S(N)(=O)=O)s1 [Acetazolamide]
–	133.81	COc1cc(C(C)=O)ccc1O [Acetovanillone]
149.17	148.31	Nc1nc2c(ncn2COCCO)c(=O)[nH]1 [Aciclovir]

collision cross section (ion adduct: [M+H]+) [Å²]	collision cross section (ion adduct: [M-H]-) [Å²]	SMILES
–	132.47	OC[C@@H](O)[C@@H](O)[C@@H](O)[C@@H](O)CO [Allitol]
168.73	178.13	O=C(C=CC=Cc1ccccc1)CCc1ccccc1 [Alnustone]
160.76	–	COc1cc(O)cc2c1C(=O)C[C@@H](c1ccccc1)O2 [Alpinetin]
195.94	199.97	COc1cc(NS(C)(=O)=O)ccc1Nc1c2ccccc2nc2ccccc12 [Amsacrine]
–	220.58	COc1ccc(C[C@H]2COC(=O)[C@@H]2Cc2ccc(O[C@@H]3O[C@H](CO)[C@@H](O)[C@H](O)[C@H]3O)c(OC)c2)cc1OC [Arctiin]
–	185.75	C[C@H]1[C@H](OC(=O)CCC(=O)O)O[C@@H]2O[C@@]3(C)CC[C@H]4[C@H](C)CC[C@@H]1[C@@]24OO3 [Artesunate]
–	193.52	O=C1C(O)=C([C@H]2CC[C@H](c3ccc(Cl)cc3)CC2)C(=O)c2ccccc21 [Atovaquone]
139.92	–	COc1c2ccoc2cc2oc(=O)ccc12 [Bergapten]
230.49	221.44	COc1ccc(-c2cc(=O)c3c(O)cc(O)cc3o2)cc1-c1c(O)cc(O)c2c(=O)cc(-c3ccc(O)cc3)oc12 [Bilobetin]
–	169.35	Oc1c(Cl)cc(Cl)cc1Sc1cc(Cl)cc(Cl)c1O [Bithionol]
207.91	200.74	O=C(Nc1nc(-c2ccc(O)c(O)c2)c(-c2ccccc2)s1)c1ccc(O)c(O)c1 [COH29]
–	176.94	O=C(/C=C/c1ccc(O)c(O)c1)OCCc1ccccc1 [Caffeic acid phenethyl ester]
164.02	167.35	COc1cc(O)cc(O)c1C(=O)/C=C/c1ccccc1 [Cardamonin]
–	166.95	O=C(N[C@H](CO)[C@H](O)c1ccc([N+](=O)[O-])cc1)C(Cl)Cl [Chloramphenicol]
157.98	158.46	Nc1ccn(C[C@@H](CO)OCP(=O)(O)O)c(=O)n1 [Cidofovir]
158.19	162.03	Nc1nc(Cl)nc2c1ncn2[C@@H]1O[C@H](CO)[C@@H](O)[C@@H]1F [Clofarabine]
124.69	–	O=c1ccc2ccccc2o1 [Coumarin]
–	222.53	CC1(C)CC[C@]2(C(=O)O)CC[C@]3(C)C(=CC[C@@H]4[C@@]5(C)C[C@@H](O)[C@H](O)C(C)(C)[C@@H]5CC[C@]43C)[C@@H]2C1 [Crategolic acid]
–	280.87	CC(/C=C/C=C(\C)C(=O)O[C@@H]1O[C@H](CO)[C@@H](O)[C@H](O)[C@H]1O)=C\C=C\C=C(C)\C=C\C=C(/C)C(=O)O[C@@H]1O[C@H](CO[C@@H]2O[C@H](CO)[C@@H](O)[C@H](O)[C@H]2O)[C@@H](O)[C@@H](O)[C@H]1O [Crocin II]

SMILES	collision cross section (ion adduct: [M+H]+) [Å²]	collision cross section (ion adduct: [M-H]-) [Å²]
COc1cc(C2c3cc4c(cc3C(O)C3COC(=O)C23)OCO4)cc(OC)c1O (stereo not given) [4'-Demethylpodophyllotoxin]	195.99	197.38
CC(C)(C)[C@]1(O)C[C@@H]2OC(=O)C[C@@]23C(=O)O[C@@H]2OC(=O)[C@H](O)[C@]213 [(-)-Bilobalide]	–	162.4
C=CC[C@]1(O)CC[C@H]2[C@@H]3CCC4=CC(=O)CCC4=C3C=C[C@@]21C [Altrenogest]	178.86	180.56
N#C[C@H](O[C@@H]1O[C@H](CO[C@@H]2O[C@H](CO)[C@@H](O)[C@H](O)[C@H]2O)[C@@H](O)[C@H](O)[C@H]1O)c1ccccc1 [Amygdalin]	214.69	205.69
COc1ccc(C[C@H]2NC[C@H](O)[C@H]2OC(C)=O)cc1 [Anisomycin]	164.18	–
O=C(Nc1ccccc1)c1ccccc1I [Benodanil]	152.62	156.05
CNC(=O)Oc1cccc2ccccc12 [Carbaryl]	–	144.36
COC(=O)Nc1nc2ccccc2[nH]1 [Carbendazim]	138.81	–

— the supplement of paper PMC7455731
